Source: publication PMC10183817, “Inhibition of ATP synthase reverse activity restores energy homeostasis in mitochondrial pathologies” (The EMBO Journal, 2023)

What was measured:
[1] = target: T1, mitochondrial ATP synthase (F1F0ATPase, Complex V, CV) (Mus musculus, UniProt P56480+Q03265); test: acidification rate (Seahorse XF96), isolated heart mitochondria; type: biochemical; conditions: ATP 20 mM; pH 7.2; oligomycin-sensitive
T1 construct: gene Atp5f1a; native fully assembled complex in isolated mouse heart mitochondria (frozen/thawed, or separated by blue native gel); with ATP synthase F(1) complex subunit gamma, mitochondrial; ATP synthase F(1) complex subunit delta, mitochondrial; ATP synthase F(1) complex subunit epsilon, mitochondrial; ATP synthase peripheral stalk subunit OSCP, mitochondrial; ATP synthase peripheral stalk subunit b, mitochondrial; ATP synthase peripheral stalk subunit d, mitochondrial; ATP synthase peripheral stalk subunit F6, mitochondrial; ATP synthase F(0) complex subunit a; ATP synthase F(0) complex subunit 8; ATP synthase F(0) complex subunit C1, mitochondrial

[2] = target: T2, purified bovine CV (Complex V, F-type ATP synthase) (Bos taurus, UniProt P00829+P19483); test: competition with ATPIF1-GFP for CV tetramer, blue native gel fluorescence; conditions: indirect binding read-out; prevents ATPIF1-GFP binding, does not displace bound ATPIF1; room temperature
T2 construct: gene ATP5F1A; native purification from bovine heart; monomer (LMNG), tetramer (GDN) and oligomer preparations; with ATP synthase F(1) complex subunit gamma, mitochondrial; ATP synthase F(1) complex subunit delta, mitochondrial; ATP synthase F(1) complex subunit epsilon, mitochondrial; ATP synthase peripheral stalk subunit OSCP, mitochondrial; ATP synthase peripheral stalk subunit b, mitochondrial; ATP synthase peripheral stalk subunit d, mitochondrial; ATP synthase peripheral stalk subunit F6, mitochondrial; ATP synthase F(0) complex subunit a; ATP synthase F(0) complex subunit 8; ATP synthase F(0) complex subunit C1, mitochondrial

[3] = target: T2, purified bovine CV (Complex V, F-type ATP synthase); test: in-gel ATP hydrolysis, blue native gel, purified CV; type: biochemical; conditions: monomer, tetramer and oligomers, also F1 subcomplex; independent of the ATPIF1 amount
[4] = target: T1, mitochondrial ATP synthase (F1F0ATPase, Complex V, CV); test: HyFS: acidification rate (Seahorse XF96), frozen heart mitochondria; type: biochemical; conditions: EPI 100 nM; ATP 20 mM; pH 7.2; MAS buffer; partial inhibition, ATP synthesis not impaired

| % inhibition [4] | SMILES | acidification rate (Seahorse XF96), isolated heart mitochondria [1] | competition with ATPIF1-GFP for CV tetramer, blue native gel fluorescence [2] | in-gel ATP hydrolysis, blue native gel, purified CV [3] |
| --- | --- | --- | --- | --- |
|  | Nc1ncnc2c1ncn2[C@@H]1O[C@H](COP(=O)(O)OP(=O)(O)OP(=O)(O)O)[C@@H](O)[C@H]1O [ATP] | addition of ATP resulted in a sharp increase in proton release that was oligomycin sensitive |  |  |
| ~ 30% | Oc1cc(O)c2c(c1)O[C@@H](c1ccc(O)c(O)c1)[C@@H](O)C2 [EPI, (+)-Epicatechin] |  | In both purified tetramers and isolated mitochondria, EPI prevented the binding of ATPIF1‐GFP | We found that EPI inhibited ATP hydrolysis independently of the amount of ATPIF1 |
